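Compound exposure: 48 hours, 5 concentrations, 96-well plates. GI50 = concentration required for 50% inhibition of growth.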 Calls of active or inactive are those of the source. Rule as the data show it: active = GI50 up to about 1.1 µM and inactive = higher.
Key:
Assay in all cases: NCI-60 cell line screen, 48 h
[1] = tested on: Malme-3M
[2] = tested on: CCRF-CEM
[3] = tested on: HL-60
[4] = tested on: HCT-15
[5] = tested on: SK-MEL-2
[6] = tested on: SF-539
[7] = tested on: OVCAR-8
[8] = tested on: NCI-H226
[9] = tested on: IGROV-1
[10] = tested on: SF-268
[11] = tested on: HCT-116
[12] = tested on: DLD-1
[13] = tested on: OVCAR-4
[14] = tested on: SF-295
[15] = tested on: OVCAR-3
[16] = tested on: TK-10
[17] = tested on: RXF 393
[18] = tested on: HOP-62

Compound | GI50 [1] | GI50 [2] | GI50 [3] | GI50 [4] | GI50 [5] | GI50 [6] | GI50 [7] | GI50 [8] | GI50 [9] | GI50 [10] | GI50 [11] | GI50 [12] | GI50 [13] | GI50 [14] | GI50 [15] | GI50 [16] | GI50 [17] | GI50 [18]
Cc1ccc2nc3c(Cl)cc(=O)cc-3sc2c1 | 30 µM (inactive) | 1.96 µM (inactive) | 5.77 µM (inactive) | 17.5 µM | > 10 µM (inactive) | 3.38 µM (inactive) | 21.2 µM (inactive) | 27.2 µM (inactive) | 19.4 µM (inactive) | 23.6 µM (inactive) | 17.9 µM (inactive) | > 10 µM (inactive) | 16.1 µM (inactive) | 25.8 µM (inactive) | 3 µM (inactive) | 28.1 µM (inactive) | – | –
COc1cc2ccnc(-c3c4ccccc4c(N)c4c(OC)c(OC)ccc34)c2cc1OC | 3.32 µM (inactive) | 2.37 µM (inactive) | 1.39 µM (inactive) | – | 4.86 µM (inactive) | 2.09 µM (inactive) | 3.6 µM (inactive) | 2.07 µM (inactive) | 3.24 µM (inactive) | 3.01 µM (inactive) | – | 3.04 µM (inactive) | 1.97 µM (inactive) | 3.18 µM (inactive) | – | 10.4 µM (inactive) | 2.4 µM (inactive) | 2.96 µM (inactive)
CC(=O)OC1(C)C(=O)OC1(C)C(C)=O (stereo not given) | > 100 µM (inactive) | > 100 µM (inactive) | > 100 µM (inactive) | > 100 µM | > 100 µM (inactive) | > 100 µM (inactive) | > 100 µM (inactive) | > 100 µM (inactive) | > 100 µM (inactive) | > 100 µM (inactive) | > 100 µM (inactive) | > 100 µM (inactive) | > 100 µM (inactive) | > 100 µM (inactive) | > 100 µM (inactive) | > 100 µM (inactive) | > 100 µM (inactive) | –
CCn1c(=O)nc2n(-c3ccc(SC)cc3)c3ccccc3nc-2c1=O | > 100 µM (inactive) | > 100 µM (inactive) | 35.7 µM (inactive) | > 100 µM | > 100 µM (inactive) | 54 µM (inactive) | > 100 µM (inactive) | > 100 µM (inactive) | > 100 µM (inactive) | 79.8 µM (inactive) | – | > 100 µM (inactive) | > 100 µM (inactive) | > 100 µM (inactive) | 24.6 µM (inactive) | > 100 µM (inactive) | – | > 100 µM (inactive)
COc1cc(C(=O)C/C(CCC(=O)Nc2ccccc2[N+](=O)[O-])=N\NC(=O)C(N)=O)ccc1O | – | > 100 µM (inactive) | > 100 µM (inactive) | > 100 µM | > 100 µM (inactive) | > 100 µM (inactive) | > 100 µM (inactive) | > 100 µM (inactive) | > 100 µM (inactive) | > 100 µM (inactive) | > 100 µM (inactive) | > 100 µM (inactive) | > 100 µM (inactive) | > 100 µM (inactive) | > 100 µM (inactive) | > 100 µM (inactive) | 76.4 µM (inactive) | > 100 µM (inactive)
N=c1n(CC(=O)NC23CC4CC(CC(C4)C2)C3)c2ccccc2n1CC(=O)NC12CC3CC(CC(C3)C1)C2 | 1.67 µM (inactive) | 2.8 µM (inactive) | 2.67 µM (inactive) | 1.9 µM | 17.2 µM (inactive) | 1.92 µM (inactive) | 1.68 µM (inactive) | – | 1.56 µM (inactive) | 1.95 µM (inactive) | 2.03 µM (inactive) | 1.9 µM (inactive) | 1.79 µM (inactive) | 2.06 µM (inactive) | 1.88 µM (inactive) | 1.66 µM (inactive) | 1.75 µM (inactive) | 2.02 µM (inactive)
COc1cccc(C(=O)C2C(=O)N(C)CCc3ccccc32)c1OC (stereo not given) | > 100 µM (inactive) | > 100 µM (inactive) | > 100 µM (inactive) | > 100 µM | > 100 µM (inactive) | – | > 100 µM (inactive) | > 100 µM (inactive) | > 100 µM (inactive) | > 10 µM (inactive) | > 100 µM (inactive) | > 100 µM (inactive) | > 100 µM (inactive) | – | > 100 µM (inactive) | > 100 µM (inactive) | > 100 µM (inactive) | > 100 µM (inactive)
Cc1cccc(O)c(=O)c1 | 31 µM (inactive) | 3.48 µM (inactive) | 3.44 µM (inactive) | 8.3 µM | – | 29.6 µM (inactive) | 19.1 µM (inactive) | 3.3 µM (inactive) | 37.4 µM (inactive) | 21.2 µM (inactive) | 11.9 µM (inactive) | 24.1 µM (inactive) | 45.8 µM (inactive) | 39.7 µM (inactive) | 11.6 µM (inactive) | 29.2 µM (inactive) | > 100 µM (inactive) | 39.2 µM (inactive)
CCCCCCCCCCCc1nnc(N)o1 | > 100 µM (inactive) | – | 37.2 µM (inactive) | > 100 µM | > 100 µM (inactive) | > 100 µM (inactive) | > 100 µM (inactive) | > 100 µM (inactive) | > 100 µM (inactive) | 99.1 µM (inactive) | > 100 µM (inactive) | > 100 µM (inactive) | 65.2 µM (inactive) | > 100 µM (inactive) | > 100 µM (inactive) | > 100 µM (inactive) | – | > 100 µM (inactive)
CC(=O)OCC1OC(n2cccnc2=O)C(OC(C)=O)C1OC(C)=O (stereo not given) | > 100 µM (inactive) | > 100 µM (inactive) | > 100 µM (inactive) | > 100 µM | > 100 µM (inactive) | – | > 100 µM (inactive) | > 100 µM (inactive) | – | > 100 µM (inactive) | > 100 µM (inactive) | > 100 µM (inactive) | > 100 µM (inactive) | – | > 100 µM (inactive) | > 100 µM (inactive) | > 100 µM (inactive) | > 100 µM (inactive)
O=c1c2cc(Br)cc(Br)c2nc(CCCl)n1-c1ccc(O)c([N+](=O)[O-])c1 | 19.1 µM (inactive) | 20.7 µM (inactive) | 23.3 µM (inactive) | 19 µM | 18.9 µM (inactive) | 21.4 µM (inactive) | 22.9 µM (inactive) | 19.6 µM (inactive) | 22.6 µM (inactive) | 19.3 µM (inactive) | 14.7 µM (inactive) | 18.9 µM (inactive) | 15.5 µM (inactive) | 24.1 µM (inactive) | 19.1 µM (inactive) | 18.5 µM (inactive) | – | 18.7 µM (inactive)
CS(=O)(=O)NNS(=O)(=O)c1ccc(Br)cc1 | > 100 µM (inactive) | > 100 µM (inactive) | > 100 µM (inactive) | > 100 µM | > 100 µM (inactive) | > 100 µM (inactive) | > 100 µM (inactive) | > 100 µM (inactive) | > 100 µM (inactive) | > 100 µM (inactive) | > 100 µM (inactive) | > 100 µM (inactive) | > 100 µM (inactive) | – | – | > 100 µM (inactive) | > 100 µM (inactive) | > 100 µM (inactive)
C(=C1\CCC/C(=C/c2ccccc2)C1=NNc1ccccc1)/c1ccccc1 | > 100 µM (inactive) | > 100 µM (inactive) | > 100 µM (inactive) | > 100 µM | > 100 µM (inactive) | > 100 µM (inactive) | > 100 µM (inactive) | – | > 100 µM (inactive) | > 100 µM (inactive) | > 100 µM (inactive) | > 100 µM (inactive) | > 100 µM (inactive) | > 100 µM (inactive) | > 100 µM (inactive) | > 100 µM (inactive) | 38.2 µM (inactive) | 46.7 µM (inactive)
C/C(CC(=O)CCCC(=O)Nc1ccc(Cl)cc1Cl)=N/NC(=O)CC#N | > 100 µM (inactive) | > 100 µM (inactive) | > 100 µM (inactive) | > 100 µM | > 100 µM (inactive) | > 100 µM (inactive) | > 100 µM (inactive) | > 100 µM (inactive) | > 100 µM (inactive) | > 100 µM (inactive) | > 100 µM (inactive) | > 100 µM (inactive) | > 100 µM (inactive) | > 100 µM (inactive) | > 100 µM (inactive) | > 100 µM (inactive) | > 100 µM (inactive) | –
CSC(C1c2ccccc2N(C)C2=NC(=O)N(C)C(=O)C21Cl)S(=O)(=O)c1ccc(C)cc1 (stereo not given) | 40.3 µM (inactive) | 9.04 µM (inactive) | 14.2 µM (inactive) | 40.9 µM | 33 µM (inactive) | 42 µM (inactive) | 21 µM (inactive) | > 100 µM (inactive) | > 100 µM (inactive) | 29.3 µM (inactive) | 31.8 µM (inactive) | 40.9 µM (inactive) | 61.2 µM (inactive) | 33.6 µM (inactive) | 18.9 µM (inactive) | > 100 µM (inactive) | – | > 100 µM (inactive)
COP12(OC)NC(=O)OC1(C(F)(F)F)c1ccccc1O2 (stereo not given) | > 100 µM (inactive) | > 100 µM (inactive) | > 100 µM (inactive) | > 100 µM | > 100 µM (inactive) | > 100 µM (inactive) | > 100 µM (inactive) | > 100 µM (inactive) | > 100 µM (inactive) | > 100 µM (inactive) | > 100 µM (inactive) | > 100 µM (inactive) | > 100 µM (inactive) | > 100 µM (inactive) | > 100 µM (inactive) | > 100 µM (inactive) | > 100 µM (inactive) | –
CC1(C)CCCC2(C)[C@@H]1CC[C@@]13CC(=O)[C@@](C)(CC[C@@H]21)C3 (stereo not given in full) | > 100 µM (inactive) | > 100 µM (inactive) | 52.4 µM (inactive) | 97.5 µM | – | > 100 µM (inactive) | 85.7 µM (inactive) | 83.4 µM (inactive) | > 100 µM (inactive) | 95.7 µM (inactive) | 46.1 µM (inactive) | > 100 µM (inactive) | 87.9 µM (inactive) | > 100 µM (inactive) | > 100 µM (inactive) | > 100 µM (inactive) | 18.3 µM (inactive) | 82.2 µM (inactive)
